Experimental data: US9689040B2, “Selective inhibitors of tumor-initiating cells” (Children's Medical Center Corporation, priority 2011, dated 2017)

What was measured:
[1] = test system: MB-468 tumors; test: MB-468 tumor-bearing mice; type: in vivo, mouse; conditions: intratumoral or intravenous regimen, 45 days
Description: Mean tumor volume in MB-468 tumor-bearing mice upon intratumoral infusion of bortezomib (0.8 mg/kg) or DMSO q3d.
Treatment was started once mice developed palpable tumors.

[2] = test system: BPLER tumors; test: BPLER tumor xenografts in Nu/J mice (tumor volume, tumor weight); type: in vivo, mouse
Description: We first assessed the effect of bortezomib on pre-established subcutaneous BPLER xenografts in nude mice. […] To reduce experimental variability, we selected mice bearing tumors of homogenous size (˜[…] in diameter after 3 weeks from injection), which were randomized into two groups. Each group received 6 doses of either vehicle (DMSO) or bortezomib at 0.5 mg/kg i.p. q3d over a 16-day period, respectively. At the end of the treatment period, mice were sacrificed and tumor weight was assessed.
Bortezomib is already in the clinic for treatment of multiple myeloma and other lymphomas. To start investigating potential clinical efficacy in TNBC, BPLER tumor-bearing mice were given 1 dose (0.8 mg/kg) of bortezomib intratumorally (i.t.), intraperitoneally (i.p) or intravenously (i.v.) and proteasome activity in the tumor was assessed after 18 hours (FIG. 6A). […] To assess therapeutic efficacy, we administered bortezomib every 3 days (0.8 mg/kg i.t.) or weekly (1.6 mg/kg i.v.) after BPLER tumors, implanted in the flank of Nu/J mice, became palpable. BPLER tumor outgrowth was assessed by tumor volume during the treatment period and by tumor weight at the time of sacrifice.
All animal procedures were performed with IACUC approval. Exponentially growing cells were trypsinized with TRYPLE EXPRESS (Invitrogen), resuspended in a 1:1 WIT-Matrigel solution at the indicated numbers, and injected subcutaneously in the flank of 4-week old female Nu/J mice (Stock #002019, Jackson Laboratories). […] Mice were sacrificed 16 days after beginning treatment and tumor weight was assessed.

[3] = molecular target: proteasome (Homo sapiens, UniProt P28074); test: Proteasome activity in BPLER and HMLER cells (ProteaGlo assay); conditions: 6 hr after treatment
[4] = test system: mouse TNBC primary tumor fragments; test: Primary TNBC tumor fragments from TP53 heterozygous Balb/c mice implanted in mammary fat-pad (V22 tumors); type: in vivo; conditions: 1.6 mg/kg weekly i.v. infusion
Description: (6A) Proteasome activity in protein lysates from BPLER tumors 18 hours after intratumoral (i.t.), intraperithoneal (i.p) or intravenous (i.v.) treatment with bortezomib at the indicated dose, as determined by ProteasomeGlo assay. Proteasome activity in BPLER treated with bortezomib in vitro is shown as control. (6B-6E) Mean tumor volume (6B, 6D) in BPLER tumor-bearing mice after treatment with bortezomib or DMSO at the indicated dose, schedule and route of administration. Median tumor weight was measured at time of sacrifice (6C, 6E). […] (6F) Immunoblot analysis of protein lysates from BPLER tumors 18 hours after 1 intravenous dose of bortezomib at 1.6 mg/kg bortezomib or DMSO, showing efficient Noxa induction and caspase-3 and PARP1 cleavage after bortezomib treatment. (6G) Mean tumor volume in MB-468 tumor-bearing mice after intravenous treatment with 1.6 mg/kg bortezomib weekly. (6H) Schematic diagram illustrating generation of mouse TNBC primary tumor fragments for bortezomib-based therapy studies. […] 4T1-E tumors are shown as control. (6I, 6J) Mean V22 tumor volume (6I) after weekly intravenous infusion of bortezomib (1.6 mg/kg) or DMSO. Treatment was started 2 days after implantation of primary tumor fragments. […] The top and the bottom of each box represent the 75th and 25th percentile of tumor weight, respectively. […]

[5] = test system: mesenchymal MDA-MB-231 and MDA-MB-436 cells; test: cells; conditions: Homo sapiens, 24 h, read-out: decrease of cell viability
[6] = test system: Noxa, PARP1; test: Immunoblot of Noxa induction and PARP cleavage in breast cell lines; type: cell-based, human; conditions: for Noxa protein induction: 12.5 nM, 24 hours
Description: Immunoblot was performed as described^41. Primary antibodies were as follows: cleaved Caspase 3 (Cell Signaling, rabbit polyclonal, 1:1000), PARP1 (Santa Cruz, rabbit polyclonal, 1:500), MCL1 (Cell Signaling, Rabbit polyclonal, 1:1000), Bim (Santa Cruz, rabbit polyclonal, 1:500), Bik (Cell Signaling, rabbit polyclonal, 1:1000), Puma (Cell Signaling, rabbit polyclonal, 1:1000), Noxa (Calbiochem, mouse monoclonal, 1:500), Bid (Santa Cruz, rabbit polyclonal, 1:500), Bad (Santa Cruz, rabbit polyclonal, 1:500). Antibodies were diluted in 5% milk in TBS-T and incubated O.N. at 4° C. Secondary mouse and rabbit HRP-conjugated antibodies were from Amersham. Protein signal was detected using the ECL Plus kit (Amersham). For flow cytometry, cells were stained as previously described^33, using the following fluorescent-conjugated antibodies: CD44 (BD Biosciences), CD24 (BD Biosciences), CD326 (ESA, Biolegend), Annexin V (Invitrogen). For immunofluorescence microscopy, cells were fixed in 2% PFA for 10 min, permeabilized with 1% Triton X in PBS for 5 min, and incubated with primary antibodies in 0.5% Triton X, 1% FBS in PBS for 30 min at RT. Antibodies were: CK18 (Santa Cruz, mouse monoclonal, 1:100) and CK14 (Millipore, mouse monoclonal, 1:100). After washing the cells were stained sequentially with AlexaFluor647-conjugated secondary antibody (Invitrogen, 1:200) and DAPI (Sigma, 1:5000). For immunohistochemistry, BPLER tumor sections were prepared from paraffin-embedded tissues, deparaffinized and treated with 10% citrate buffer for 15 min.

[7] = test system: epithelial TNBC / basal-like cells (MB-468, HCC-1143, HCC-1937, 4T1-E); test: cells; conditions: 24 h, read-out: decrease of cell viability
[8] = test system: BPLER cells; test: Cell viability after drug treatment (CellTiterGlo / Trypan-Blue); type: cell-based, human

proteasome, sequence (P28074 60-263): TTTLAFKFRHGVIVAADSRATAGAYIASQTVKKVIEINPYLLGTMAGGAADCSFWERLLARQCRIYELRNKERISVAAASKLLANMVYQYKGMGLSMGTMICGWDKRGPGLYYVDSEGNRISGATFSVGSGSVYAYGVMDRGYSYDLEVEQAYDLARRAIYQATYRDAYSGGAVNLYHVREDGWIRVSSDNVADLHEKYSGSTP

## CC(C)C[C@H](NC(=O)[C@H](Cc1ccccc1)NC(=O)c1cnccn1)B(O)O [bortezomib]
[1]
  tumors smaller compared to control mice: at least 6 fold
[2]; 0.5 mg/kg i.p. q3d, 6 doses, after 16 days
  reduction of median tumor weight: 54%
[2]; 0.8 mg/kg i.t. every 3 days
  tumors smaller than in control mice (tumor volume, average): 85%
  tumors weighed less than in control mice (average): 91%
[2]; 1.6 mg/kg i.v. weekly
  tumors smaller than in control mice (tumor volume, average): 59%
  tumors weighed less than in control mice (average): 63%
[2]; immunohistochemistry and western blot
  Noxa induction and caspase 3 cleavage in tumors: induced Noxa induction and caspase 3 cleavage in vivo
[3]
  proteasomal activity in BPLER and HMLER: similarly inhibited proteasome activity
[4]
  secondary tumors smaller compared to control mice: ~90%
  secondary tumors weighed less compared to control mice: ~80%
[5]
  cytotoxicity at 0.0125 µM: 20 to 25%
[6]; BPE, MCF7 and T47D
  Noxa protein induction: only weakly
[6]; BPLER cells
  Noxa protein level: highly increased
[6]; HCC1143 and HCC1937 cells
  PARP cleavage: induced PARP cleavage
[6]; MCF7 or MDA-MB-436 cells
  PARP cleavage: not in MCF7 or MDA-MB-436 cells
[6]; all TNBC cell lines tested
  Noxa protein induction: strongly induced Noxa protein
[7]
  cytotoxicity at 0.0125 µM: 50 to 65%
[8]; increasing doses, 24 hr
  sensitivity of BPLER relative to HMLER cells (viability): more sensitive
[8]; non-dividing (confluent) cells
  response of BPLER cells at confluence: became resistant
